Target: DNA gyrase (Escherichia coli)
Test: Gyrase inhibitory activity against Escherichia coli

IC50: 2670 nM
SMILES: CN1CCN(c2c(F)cc3c(=O)c(C(=O)O)cn4c3c2OCC42CC2)CC1
